We go through four compounds from publication PMC11110238, “Synthesis of novel carbazole hydrazine-carbothioamide scaffold as potent antioxidant, anticancer and antimicrobial agents” (BMC Chemistry, 2024).

One experiment relates to L929 normal cell lines. The experiment can be described thus: MTT cell viability, L929 normal cell line. Format: cell-based. Conditions: Mus musculus, 48 h. How it is done: (§1) Cells (MCF-7 and L929) were incubated in 75 cm^2 sterile flasks with 10% FBS, 100 U/mL penicillin, and 100 µg/mL streptomycin. The cells were grown at 37 ^○C in 5% CO2, and MTT was used to screen the viability of the cells. Cells were seeded at a density of 10^4 cells per well. The cells were then cultured for 24 h in 100 µl of DMEM complete medium. After pretreatment with different concentrations of the compounds for 48 h, 10 µl of 5 mg/mL MTT solution was added to each well and incubated for 4 h at 37 ^○C, and 100 µl of DMSO was used in each well to dissolve the blue formazan crystals. Then, the absorbance was measured at 570 nm. The cell viability percentages of compound 4o against MCF-7 cancer cell lines and L929 normal cell lines were presented in Fig. 2 in comparison with doxorubicin anticancer agent.

Another experiment deals with MCF-7 cell line. The experiment can be described thus: MTT cell viability, MCF-7 cancer cell line. Type of experiment: cell-based. As to the method:
MCF-7 cancer cell lines were cultured at Dulbecco’s Modified Eagle Medium High Glucose (DMEM) (EuroClone, Via Figino, Italy); fetal bovine serum (FBS) and MTT (3-(4,5-Dimethylthiazol-2-yl)-2,5-Diphenyl Tetrazolium Bromide) were provided by Sigma-Aldrich (Darmstadt, Germany); ApopNexin Annexin-V-FITC with PI Apoptosis Kit was obtained from Merck (Darmstadt, Germany); Total RNA Isolation Kit was provided by Analytic Jena (Jena, Germany), SensiFast cDNA Synthesis Kit was provided by Meridian Bioscience (Cincinati, USA), SybrGreen Master Mix was obtained from EuroClone (Via Figino, Italy).
as §1

In a further experiment the test system is MCF-7 cells. The experiment can be described thus: Annexin-V-FITC/PI apoptosis assay by flow cytometry. Format: cell-based. Conditions: MCF-7, sum of pre-apoptotic, post-apoptotic and necrosis. As to the method:
FITC Annexin-V apoptosis detection kit with PI, ApopNexinTM FITC (APT750, Merk, Germany) was used for apoptosis assay. MCF-7 cells were seeded into a 6-well plate (1 × 10^6 cells per well). Then, the cells were incubated with the compounds at the cytotoxic concentration by employing a cell viability assay. Apoptotic cells were cultured with the compounds, the medium was removed after incubation, and the cells were washed twice with 5 mL of pre-chilled phosphate-buffered saline. Cells washed with PBS were lifted with Trypsin–EDTA and centrifuged at 400 rpm for 5 min. The resulting cells were each treated with 1 mL of cold 1-X Binding Buffer (Sigma Aldrich, USA). Then, 200 μL of the mixture was taken and placed in a flow cytometry tube, and the other part containing cells was kept on ice. First, 3 µl of ApopNexinTM FITC and 2 µl of 100X propidium iodide (PI) (P4170, Sigma Aldrich, USA) were added to the solution taken into the sample tube and mixed. The resulting mixture was incubated for 15 min in the dark at room temperature. At the end of the incubation, the samples were measured in flow cytometry (Beckman Coulter Cytoflex) and data were obtained.
A general note: Flow cytometry measures light scatter and fluorescence of single cells or particles in a stream.

Details of experiment [1]: method as in PMID 37328860. Conditions: previous preliminary work; read-out: Antioxidant IC50 against DPPH; cited from earlier work. (In general: Loss of DPPH colour is used to gauge radical scavenging.)
The subject of a further experiment is MCF-7 cancer cell lines. On the set-up: method as in PMID 37328860. Particulars: previous preliminary work; read-out: anticancer IC50 MCF-7; cited from earlier work.
A further experiment relates to HeLa cancer cell lines. Also noted: method as in PMID 37328860. Conditions: previous preliminary work; read-out: anticancer IC50 HeLa; cited from earlier work.

Molecules are shown by their SMILES.

Usually IC50 stands for the concentration needed to halve the response being measured. In the case of `COc1cccc2c1C(=O)c1c(O)c3c(c(O)c1C2=O)C[C@@](O)(C(=O)CO)C[C@@H]3O[C@H]1C[C@H](N)[C@H](O)[C@H](C)O1` [Doxorubicin, reference compound], the IC50 in the experiment with L929 normal cell lines turned out to be 19.3 µM; in the experiment on MCF-7 cell line (Homo sapiens, MCF7, MTT, 48 h, read-out: IC50 values Carbazole Derivatives Effect on MCF-7 Cell Line), 5.06 ± 0.21 µM. Further, in the experiment with MCF-7 cell line (L929 vs MCF-7), the “selective index (SI)” value was 3.82. Besides, the total dead cells with MCF-7 cells was found to be 14.50%.

Consider `COc1ccc(S(=O)(=O)NNC(=O)Cn2c3ccccc3c3ccccc32)cc1` [St.1], for which, in experiment [1], the IC50 was 1.05 µM.

Take `O=C(c1ccc(F)cc1)n1nc(Cn2c3ccccc3c3ccccc32)oc1=O` [St.3]: the values for the IC50 in the experiment on MCF-7 cancer cell lines and in the experiment with HeLa cancer cell lines were 6.44 µM and 17.2 µM, respectively.

Take `O=C(Cn1c2ccccc2c2ccccc21)N/N=C1\SCC(=O)N1c1ccc(Cl)cc1` [St.2]: the IC50 was 18.4 µM in the experiment with MCF-7 cancer cell lines, 5.15 µM in experiment [1] and 7.59 µM with HeLa cancer cell lines.
